Data reported in PMC8837544, “Pharmacological inhibition of MERTK induces in vivo retinal degeneration: a multimodal imaging ocular safety assessment” (Archives of Toxicology, 2022).
Values after ≈ are worked out from the molar mass of the structure shown. Values joined by “and” are separate entries in the source; they are usually repeats but may differ in a detail not shown here. Equal values may be shown once. Each block holds one compound with its values, some of them ahead of it.

Tests used:
MAP4K5 (KHS1) = MAP4K5 (KHS1) (Homo sapiens, UniProt Q9Y4K4); conditions: 1 μM
MAP4K5 (KHS1), sequence (Q9Y4K4 whole entry): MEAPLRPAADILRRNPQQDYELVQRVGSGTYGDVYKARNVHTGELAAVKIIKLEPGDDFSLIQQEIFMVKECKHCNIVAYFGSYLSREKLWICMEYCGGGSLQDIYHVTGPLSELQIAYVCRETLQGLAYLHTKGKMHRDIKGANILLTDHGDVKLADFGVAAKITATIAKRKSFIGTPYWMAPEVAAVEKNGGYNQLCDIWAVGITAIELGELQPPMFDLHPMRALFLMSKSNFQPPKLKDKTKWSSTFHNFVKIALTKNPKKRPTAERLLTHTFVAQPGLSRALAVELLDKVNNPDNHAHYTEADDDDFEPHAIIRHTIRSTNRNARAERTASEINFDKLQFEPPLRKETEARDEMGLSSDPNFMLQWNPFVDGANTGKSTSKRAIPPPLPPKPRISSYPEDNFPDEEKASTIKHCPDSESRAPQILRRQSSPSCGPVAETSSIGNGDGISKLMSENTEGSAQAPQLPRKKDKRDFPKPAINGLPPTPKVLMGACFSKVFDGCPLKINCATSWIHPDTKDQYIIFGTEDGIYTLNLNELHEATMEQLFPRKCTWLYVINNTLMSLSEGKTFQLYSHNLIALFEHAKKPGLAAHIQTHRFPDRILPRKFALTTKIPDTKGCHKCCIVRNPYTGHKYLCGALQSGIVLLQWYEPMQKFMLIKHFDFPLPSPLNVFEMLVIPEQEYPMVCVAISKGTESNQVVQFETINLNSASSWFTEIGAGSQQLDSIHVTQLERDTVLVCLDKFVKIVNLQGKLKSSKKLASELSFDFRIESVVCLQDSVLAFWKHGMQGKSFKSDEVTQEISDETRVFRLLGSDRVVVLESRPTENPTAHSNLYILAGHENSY

HLM intrinsic clearance = type: in vitro ADME, human
[1] = tested on: ARPE19, human retinal epithelial cells; test: Phagocytosis of photoreceptor outer segments (POS) in human retinal cells; type: cell-based; conditions: 3 μM, 6-h incubation, FITC-labeled POS
Procedure: ARPE19, human retinal epithelial cells, were cultured in Dulbecco’s modified Eagle’s medium (DMEM/F12, supplemented with 10% fetal bovine serum). All culture materials were purchased from Thermo Fisher Scientific. Cells were seeded at 10,000 cells per well in CellCarrier imaging plates (Perkin Elmer) and cultured for up to 6 weeks to allow for polarization of the cell layer. On the day of treatment cells were washed three times in PBS and then incubated in serum free conditions with FITC-labeled POS at a concentration of 10 POS/cell and either DMSO or 3 μM of AZ14145845 in DMSO. Following incubation for 6 h, cells were washed with PBS to remove non-internalized POS and fixed in 4% PFA. Following staining of nuclei with Hoechst, cells were imaged using a […] ImageExpress Confocal microscope. Each well was imaged at 20 × with 16 images taken per well. Analysis modules were written using the custom module editor of MetaXpress vers 6.5.4.532. Nuclei were segmented and enumerated using the embedded count nuclei module. Individual POS particles were segmented and counted on a per image basis using the same custom module. Data are expressed as fold change in total POS per cell over control. Experiments were carried out a minimum of 3 times.

retina [2] = conditions: mouse, in vivo
Procedure: (§1) All in vivo experimental procedures were conducted in accordance with United Kingdom legislation (Animals (Scientific Procedures) Act, 1986) and were compliant with the ARRIVE guidelines. 6–7-week-old female (20–25 g) C57BL/6 J mice (Charles River Laboratories Ltd, UK) were acclimatized to the facility for 10 days and then randomized to groups based on bodyweight; vehicle control (n = 6, animals 1–6) and MERTK inhibitor treatment (n = 9, animals 7–15). Animals were treated via oral gavage with vehicle control (60% v/v 0.1 M HCl, 20% v/v PEG 400, 20% v/v purified water pH 3.5–4.5) or AZ14145845 (200 mg/kg). All animals were dosed twice daily with a dose volume of 10 mL/kg for 28 days, with the final dose being administered on the morning of Day 29. The dose interval between the first and second dose on each day was 8 h. […] Samples for histopathology were taken from 6 controls (animals 1–6), 8 treated animals (animals 7–11, 13–15) and for electron microscopy from 1 control (animal no. 1) and 3 treated animals (animals 8–10) and for MSI from 3 treated animals (animals 13–15).

Solubility = type: physicochemical
retina [3] = test: Retinal histopathology (H&E light microscopy) in 28 day mouse safety study; type: in vivo, C57BL/6 J mice
[4] = 200 mg/kg BID, C57BL/6 J mice, 28 days
Procedure: as §1
A whole blood sample (32 µL) was collected via a tail vein prick into a K2-EDTA treated capillary tube, centrifuged at 1500g for 10 min at 4 °C, and plasma collected using a micropipette (non-EDTA Ref.no. 172292, Vitrex Medical A/S, Denmark). Samples were collected on Day 1 at 30 min, 2-h, 8-h (pre-second dose) and 24-h post the first dose. On days 7, 28, 29 samples were collected at 2-h post the first dose and at 8-h pre the second dose.

[5] = Human plasma protein binding; type: in vitro ADME
macrophage efferocytosis = test: Macrophage efferocytosis assay; type: cell-based
Axl [6] = target: T1, Axl (Homo sapiens, UniProt P30530); conditions: 1 μM
T1 sequence (P30530 26-894): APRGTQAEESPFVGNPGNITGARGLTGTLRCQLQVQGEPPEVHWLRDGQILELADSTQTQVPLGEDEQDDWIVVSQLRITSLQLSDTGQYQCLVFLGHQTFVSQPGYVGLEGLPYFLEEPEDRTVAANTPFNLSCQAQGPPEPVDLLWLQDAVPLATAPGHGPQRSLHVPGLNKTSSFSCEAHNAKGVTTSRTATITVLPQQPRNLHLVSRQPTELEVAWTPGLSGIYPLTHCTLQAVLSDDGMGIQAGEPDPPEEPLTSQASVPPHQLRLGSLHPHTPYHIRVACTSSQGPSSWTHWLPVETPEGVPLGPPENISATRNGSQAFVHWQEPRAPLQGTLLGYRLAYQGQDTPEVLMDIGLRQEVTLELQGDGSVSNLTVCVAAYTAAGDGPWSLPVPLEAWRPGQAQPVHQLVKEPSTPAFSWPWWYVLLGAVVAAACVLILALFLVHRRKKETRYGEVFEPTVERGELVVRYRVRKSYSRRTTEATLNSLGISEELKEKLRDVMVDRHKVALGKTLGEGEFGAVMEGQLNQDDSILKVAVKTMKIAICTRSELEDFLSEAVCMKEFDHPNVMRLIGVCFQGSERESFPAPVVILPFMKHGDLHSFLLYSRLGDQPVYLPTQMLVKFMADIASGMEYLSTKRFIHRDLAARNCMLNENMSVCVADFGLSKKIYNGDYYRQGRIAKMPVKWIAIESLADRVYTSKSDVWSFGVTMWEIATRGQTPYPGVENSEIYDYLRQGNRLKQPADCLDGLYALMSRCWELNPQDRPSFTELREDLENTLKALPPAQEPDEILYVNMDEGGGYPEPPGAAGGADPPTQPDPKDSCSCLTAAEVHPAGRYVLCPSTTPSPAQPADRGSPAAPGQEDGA

Mouse pharmacokinetics = type: in vivo
[7] = Ocular exposure in the rat (melanin binding); type: in vivo; conditions: for eye partition coefficient (Kp): iv infusion 2 μmol/kg/h, 4-h post infusion
Procedure: Male pigmented Long Evans and non-pigmented Han Wistar rats were treated via intravenous infusion of AZ14145845 at a dose of 2 μmol/kg/h in a TEG:DMA:H2O (1:1:1) formulation, dose volume 4 mL/kg. At 4-h post the 15-min intravenous infusion, the animals were killed and the eyes extracted and homogenized to determine the concentration of AZ14145845 in the eye.

[8] = Bodyweight and tolerability in 28 day mouse safety study; conditions: day 5 onwards, remainder of the study
Procedure: as §1

[9] = tested on: Mer kinase Ba/F3 xenograft; conditions: 200 mg/kg, ref McCoull et al. [2021]; cited from earlier work
LogD7.4 = type: physicochemical; conditions: pH 7.4
[10] = MALDI mass spectrometry imaging of whole eye sections (quantitative MSI); type: in vivo, C57BL/6 J mice
Procedure: as §1

[11] = CaCo2 permeability and efflux; type: in vitro ADME
Axl [12] = target: T1, Axl
Procedure: (§2) Biochemical assays for Mer, Axl, Tyro3 and Flt3 were performed using a Rapidfire LCMS method as previously described (Nissink et al. [2021]). Cellular assays for pMer, pAxl, pTyro3, pFLT3 were performed in transiently transfected Cos-7 (Monkey: African green) cell lines as previously described. The macrophage efferocytosis assay was performed as previously described (Clark et al. [2019]).

Mer = Mer (Homo sapiens, UniProt Q12866)
Mer, sequence (Q12866 21-999): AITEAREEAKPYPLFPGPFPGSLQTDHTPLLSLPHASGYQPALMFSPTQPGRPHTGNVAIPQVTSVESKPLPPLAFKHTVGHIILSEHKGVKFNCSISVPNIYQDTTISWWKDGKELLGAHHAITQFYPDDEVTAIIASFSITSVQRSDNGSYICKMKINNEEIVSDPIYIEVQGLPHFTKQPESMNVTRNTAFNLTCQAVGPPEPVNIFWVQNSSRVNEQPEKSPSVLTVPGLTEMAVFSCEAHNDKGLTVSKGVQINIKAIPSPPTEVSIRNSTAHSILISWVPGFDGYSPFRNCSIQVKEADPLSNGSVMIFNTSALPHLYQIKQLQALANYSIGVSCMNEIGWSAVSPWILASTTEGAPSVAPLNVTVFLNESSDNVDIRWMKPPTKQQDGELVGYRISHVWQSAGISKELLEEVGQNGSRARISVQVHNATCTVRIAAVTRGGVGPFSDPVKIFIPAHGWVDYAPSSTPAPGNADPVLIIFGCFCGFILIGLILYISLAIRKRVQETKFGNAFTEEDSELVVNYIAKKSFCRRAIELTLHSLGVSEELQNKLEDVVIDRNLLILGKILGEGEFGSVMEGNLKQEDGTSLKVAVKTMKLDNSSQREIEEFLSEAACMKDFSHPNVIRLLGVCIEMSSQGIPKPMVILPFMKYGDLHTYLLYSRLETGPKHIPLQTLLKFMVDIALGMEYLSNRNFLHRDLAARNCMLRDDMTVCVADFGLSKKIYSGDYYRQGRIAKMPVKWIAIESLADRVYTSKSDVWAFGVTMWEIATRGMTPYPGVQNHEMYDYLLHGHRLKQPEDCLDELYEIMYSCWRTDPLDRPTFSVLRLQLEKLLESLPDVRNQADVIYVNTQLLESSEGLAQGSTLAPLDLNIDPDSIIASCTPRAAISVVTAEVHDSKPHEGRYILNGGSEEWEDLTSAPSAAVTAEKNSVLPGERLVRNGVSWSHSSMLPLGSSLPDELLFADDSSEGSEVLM
Procedure: as §2

Flt3 = Flt3 (Homo sapiens, UniProt P36888)
Flt3, sequence (P36888 27-993): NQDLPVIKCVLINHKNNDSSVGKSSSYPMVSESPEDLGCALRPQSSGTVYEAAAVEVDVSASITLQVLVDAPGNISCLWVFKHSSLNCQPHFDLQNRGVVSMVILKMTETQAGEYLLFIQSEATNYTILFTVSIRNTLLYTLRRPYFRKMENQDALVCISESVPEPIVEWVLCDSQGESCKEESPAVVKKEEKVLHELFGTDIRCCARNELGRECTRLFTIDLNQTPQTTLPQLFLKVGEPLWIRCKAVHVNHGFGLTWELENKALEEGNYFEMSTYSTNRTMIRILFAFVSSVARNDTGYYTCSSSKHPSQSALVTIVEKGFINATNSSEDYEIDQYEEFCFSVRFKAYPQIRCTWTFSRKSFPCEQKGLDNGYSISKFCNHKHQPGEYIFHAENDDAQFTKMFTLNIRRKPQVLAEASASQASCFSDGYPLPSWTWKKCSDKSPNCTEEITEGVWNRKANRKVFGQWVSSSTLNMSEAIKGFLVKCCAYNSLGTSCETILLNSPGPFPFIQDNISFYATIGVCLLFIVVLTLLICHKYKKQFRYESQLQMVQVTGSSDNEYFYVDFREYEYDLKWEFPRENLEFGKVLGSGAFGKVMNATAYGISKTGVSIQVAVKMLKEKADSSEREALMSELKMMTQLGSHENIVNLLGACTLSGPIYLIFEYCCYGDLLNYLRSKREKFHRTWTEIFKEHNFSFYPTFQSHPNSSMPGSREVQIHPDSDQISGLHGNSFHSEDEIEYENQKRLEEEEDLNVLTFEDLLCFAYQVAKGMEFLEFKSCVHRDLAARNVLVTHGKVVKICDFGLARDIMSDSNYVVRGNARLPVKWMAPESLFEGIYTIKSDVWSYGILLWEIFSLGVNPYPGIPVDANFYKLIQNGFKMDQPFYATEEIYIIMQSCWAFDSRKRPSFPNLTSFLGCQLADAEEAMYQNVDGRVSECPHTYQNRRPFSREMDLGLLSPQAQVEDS
Procedure: as §2

[13] = Mouse plasma protein binding; type: in vitro ADME
MERTK = MERTK (Homo sapiens, UniProt Q12866); conditions: 1 μM
MERTK, sequence (Q12866 21-999): as the sequence (Q12866 21-999) above

hERG = hERG (Homo sapiens, UniProt Q12809); conditions: read-out: hERG
hERG, sequence (Q12809 whole entry): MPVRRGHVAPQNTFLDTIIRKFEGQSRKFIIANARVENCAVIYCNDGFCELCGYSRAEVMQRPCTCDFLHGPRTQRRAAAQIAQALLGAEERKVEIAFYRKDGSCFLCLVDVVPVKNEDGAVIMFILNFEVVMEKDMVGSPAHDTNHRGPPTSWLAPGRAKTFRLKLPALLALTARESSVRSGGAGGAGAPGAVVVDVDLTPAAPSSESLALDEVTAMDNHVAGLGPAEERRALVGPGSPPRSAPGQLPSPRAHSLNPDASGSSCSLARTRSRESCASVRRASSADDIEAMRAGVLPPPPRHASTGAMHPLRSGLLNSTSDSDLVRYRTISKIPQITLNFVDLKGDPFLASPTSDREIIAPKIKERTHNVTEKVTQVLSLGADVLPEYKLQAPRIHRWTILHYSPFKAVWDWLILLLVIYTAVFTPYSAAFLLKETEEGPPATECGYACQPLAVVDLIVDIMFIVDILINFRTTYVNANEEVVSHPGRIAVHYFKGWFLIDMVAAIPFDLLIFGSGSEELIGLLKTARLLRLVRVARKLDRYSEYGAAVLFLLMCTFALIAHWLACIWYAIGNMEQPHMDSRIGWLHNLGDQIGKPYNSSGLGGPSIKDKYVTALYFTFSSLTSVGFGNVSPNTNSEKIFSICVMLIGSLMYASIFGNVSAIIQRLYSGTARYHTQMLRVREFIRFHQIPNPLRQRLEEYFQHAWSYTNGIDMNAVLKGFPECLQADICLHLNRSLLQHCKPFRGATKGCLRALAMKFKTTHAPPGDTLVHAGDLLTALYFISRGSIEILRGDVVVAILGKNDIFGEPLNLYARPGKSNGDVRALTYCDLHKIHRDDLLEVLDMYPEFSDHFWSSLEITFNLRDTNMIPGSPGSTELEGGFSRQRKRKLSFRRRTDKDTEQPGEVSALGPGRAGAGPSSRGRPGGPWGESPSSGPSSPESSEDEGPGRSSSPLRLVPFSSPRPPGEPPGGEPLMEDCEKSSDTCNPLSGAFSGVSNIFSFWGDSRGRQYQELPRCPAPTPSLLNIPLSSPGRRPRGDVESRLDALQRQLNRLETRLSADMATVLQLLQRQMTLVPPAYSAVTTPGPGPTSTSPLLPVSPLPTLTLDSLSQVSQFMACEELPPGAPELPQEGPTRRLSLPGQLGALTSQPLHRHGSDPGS

retina [14] = conditions: mouse, cited from earlier work
[15] = animals 13-15, 200 mg/kg BID 28 days

inhibition of MAP4K5 (KHS1) in kinome profiling (MAP4K5 (KHS1)): > 75%
HLM CLint (HLM intrinsic clearance): 195 µL/min/mg protein
Solubility (Solubility): 938 µM (≈ 527 µg/mL)
accumulation in plasma [4]: no accumulation was observed
average free cover over MERTK Cos-7 cell IC50 at Cmax [4]: 90 fold
average free cover over MERTK Cos-7 cell IC50 at Cmin [4]: 21 fold
Human PPB (% free) [5]: 14 % free
Efferocytosis (pIC50) (macrophage efferocytosis): 7.6
inhibition of AXL in kinome profiling (Axl [6]): > 90%
bioavailability (Mouse pharmacokinetics; mouse): 15%
clearance (Mouse pharmacokinetics; mouse): 44 mL/min/kg
volume of distribution at steady state (Mouse pharmacokinetics; mouse): 3.7 L/kg
dose dependence of Cmax and AUC (Mouse pharmacokinetics; up to 200 mg/kg): Dose linear increase
difference in eye Kp, pigmented vs non-pigmented rats ([7]; assumed consequence of melanin binding): ~ ten-fold
eye partition coefficient (Kp) ([7]; non-pigmented Han Wistar rat): 2.5
eye partition coefficient (Kp) ([7]; pigmented Long Evans rat): 19
LogD7.4 (LogD7.4): 2.9
A2E (RPE marker) in the posterior part of the eye by MSI ([10]; animal no. 14 compared to animals no. 13 and 15): dramatic decrease
Total concentration in the anterior region of the eye (QMSI) [10, 15]: ~ 11 µM
Total concentration in the posterior region of the eye (QMSI) [10, 15]: ~ 9 µM
Total concentration in the whole eye (QMSI) [10, 15]: ~ 3 µM
CaCo2 efflux ratio [11]: 10
Axl enzyme (pIC50) (Axl [12]): 7.9
Axl cell (pIC50) (Axl [12]; Cos-7 cell): 7.0
Mer enzyme (pIC50) (Mer): 9.0
Mer cell (pIC50) (Mer; Cos-7 cell): 7.7 and 7.8
Flt3 enzyme (pIC50) (Flt3): < 4.5/ < 4.5
Flt3 cell (pIC50) (Flt3; Cos-7 cell): < 4.5/ < 4.5
Mouse PPB (% free) [13]: 7.6 % free
inhibition of MERTK in kinome profiling (MERTK): > 90%
SMILES: Cc1cc(-c2c(C)nn(C)c2C)cnc1-c1nnc(N(C)Cc2ccc3ncc(-c4ccc(CN(C)C)cc4)n3c2)o1 [AZ14145845]
drop in the number of internalized POS [1]: ~60%
ultra-structural findings by TEM (retina [2]): ultra-structural changes at the interface between the POS and the RPE
Total of any retinal degeneration/atrophy (of number examined) (retina [3]; 200 mg/kg BID, 28 days, one eye per mouse): 4 of 8
length of the retina affected by focal lesion (retina [3]; animal no. 10, lesion midway between optic nerve and peripheral limit): approximately 25%
extent of retina affected (retina [3]; animal no. 14, most severe microscopic changes): entire length of retina
length of the retina affected by focal lesions (retina [3]; animal numbers 8 and 9, lesions towards the periphery of the retina): approximately 20%
Number of animals with no H&E findings (retina [3]; n = 8 treated mice, 200 mg/kg BID, 28 days, one eye per mouse, 200 mg/kg): four of the eight and 4
Moderate retinal degeneration/atrophy (number of animals) (retina [3]; n = 8 treated mice, diffuse distribution, animal 14): 1 with diffuse distribution
Minimal retinal degeneration/atrophy (number of animals) (retina [3]; n = 8 treated mice, focal distribution, animals 8, 9, 10): 3 with focal distribution
weight gain above baseline [8]: 3–6%
efficacy in xenograft tumor model [9]: showed efficacy
ocular distribution by MSI ([10]; whole eye sections, 20 µm spatial resolution): largely localized in the pigmented retinal tissues of the RPE and choroid layers
IC50 (hERG): 5.7 µM

SMILES: CCCCNc1ncc2c(-c3ccc(F)cc3)nn(CC3CCC(N)CC3)c2n1 (stereo not shown) [UNC-569]
electron microscopic evaluation of the retina (retina [14]; in vivo): accumulation of membrane-bound multi-lamellated bodies in the RPE cells
microscopic examination of H&E-stained tissue sections of the eye (retina [14]; in vivo): No changes were detected
duration of inhibition of MERTK phosphorylation in retinal tissue (retina [14]; post oral administration, ref Sayama et al. [2018]): up to 17 h
